We go through 32 molecules from US11203600B2 (Denali Therapeutics Inc., priority 2017, dated 2021).

The test has as its target GST-hRIPK1 (8-327) (Homo sapiens (Human), UniProt Q13546). Briefly: Fluorescent Polarization Binding (FP Binding) assay, RIPK1. To be noted: mean of at least two independent experiments. The essentials: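 Binding by fluorescence polarisation at RT: 10 nM baculovirus-expressed GST-hRIPK1 (8-327) and 5 nM fluorescent ligand, 30 min, in 50 mM HEPES pH 7.5, 50 mM MgCl2, 0.02% CHAPS, 1% DMSO. FP read at ex 531/em 595 nm. IC50 from normalised percent inhibition, mean of ≥2 experiments.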

Where [1] appears, read: 10 nM GST-hRIPK1 (8-327), 5 nM fluorescent-labeled ligand, RT, 30 min.

Sequence of GST-hRIPK1 (8-327) (Q13546 8-327): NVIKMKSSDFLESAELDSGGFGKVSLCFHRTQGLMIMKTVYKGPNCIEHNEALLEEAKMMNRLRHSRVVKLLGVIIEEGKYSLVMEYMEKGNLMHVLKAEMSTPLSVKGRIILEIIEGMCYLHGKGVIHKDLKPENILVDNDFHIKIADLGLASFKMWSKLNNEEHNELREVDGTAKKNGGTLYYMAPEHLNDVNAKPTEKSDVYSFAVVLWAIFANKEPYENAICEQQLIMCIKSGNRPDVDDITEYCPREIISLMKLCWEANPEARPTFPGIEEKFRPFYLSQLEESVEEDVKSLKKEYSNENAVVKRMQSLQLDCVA

For `Cn1ncc2cnc(N3CCC(F)(C(=O)N4CCOc5c(C#N)cncc5C4)CC3)cc21` [Example 107, 4-[4-fluoro-1-(1-methylpyrazolo[4,3-c]pyridin-6-yl)piperidine-4-carbonyl]-3,5-dihydro-2H-pyrido[3,4-f][1,4]oxazepine-9-carbonitrile], the IC50 under setting [1] was 100 to 1000 nM.

As to `CC(C)(C(=O)N1CCOc2cc(F)ccc2C1)C(F)F` [Example 68, 3,3-difluoro-1-(8-fluoro-3,5-dihydro-2H-1,4-benzoxazepin-4-yl)-2,2-dimethyl-propan-1-one], the IC50 under setting [1] lay in the range of 100 to 1000 nM.

With `CCC(C)(C)C(=O)N1CCOc2c(C#N)cncc2C1` [Example 54, 4-(2,2-dimethylbutanoyl)-3,5-dihydro-2H-pyrido[3,4-f][1,4]oxazepine-9-carbonitrile], the IC50 under setting [1] fell in the range of 0.1 to 100 nM.

With `N#Cc1cncc2c1OCCN(C(=O)C1(C(F)F)CCN(c3ncc(F)cn3)CC1)C2` [Example 94, 4-[4-(difluoromethyl)-1-(5-fluoropyrimidin-2-yl)piperidine-4-carbonyl]-3,5-dihydro-2H-pyrido[3,4-f][1,4]oxazepine-9-carbonitrile], the half-inhibitory concentration (IC50) under setting [1] lay within 100 to 1000 nM.

Turning to `N#Cc1cncc2c1OCCN(C(=O)C1(F)CCN(c3ncc(F)c(NC4CC4)n3)CC1)C2` [Example 124, 4-[1-[4-(cyclopropylamino)-5-fluoro-pyrimidin-2-yl]-4-fluoro-piperidine-4-carbonyl]-3,5-dihydro-2H-pyrido[3,4-f][1,4]oxazepine-9-carbonitrile], the IC50 under setting [1] lay within 0.1 to 100 nM.

Regarding `COC1(C(=O)N2Cc3cncc(C#N)c3OC[C@H]2C)CCN(c2ncc(F)cn2)CC1` [Example 105, (3R)-4-[1-(5-fluoropyrimidin-2-yl)-4-methoxy-piperidine-4-carbonyl]-3-methyl-3,5-dihydro-2H-pyrido[3,4-f][1,4]oxazepine-9-carbonitrile], the IC50 under setting [1] lay in the range of 0.1 to 100 nM.

Molecule `C[C@@H]1COc2c(C#N)cncc2CN1C(=O)C(C)(C)CF` [Example 77, (3R)-4-(3-fluoro-2,2-dimethyl-propanoyl)-3-methyl-3,5-dihydro-2H-pyrido[3,4-f][1,4]oxazepine-9-carbonitrile] returned a concentration for half-maximal inhibition (IC50) under setting [1] of 0.1 to 100 nM.

The molecule `N#Cc1cncc2c1OCCN(C(=O)C1(F)CCN(c3ccnc(C(F)(F)F)n3)CC1)C2` [Example 171] had an IC50 under setting [1] of 100 to 1000 nM.

The molecule `COc1nccc(N2CCC(F)(C(=O)N3CCOc4c(C#N)cncc4C3)CC2)n1` [Example 172, 4-[4-fluoro-1-(2-methoxypyrimidin-4-yl)piperidine-4-carbonyl]-3,5-dihydro-2H-pyrido[3,4-f][1,4]oxazepine-9-carbonitrile] had an IC50 under setting [1] of 100 to 1000 nM.

Molecule `CCC(C)(OC)C(=O)N1CCOc2c(C#N)cncc2C1` (single isomer, unassigned) [Example 283, 4-(-2-Methoxy-2-methyl-butanoyl)-3,5-dihydro-2H-pyrido[3,4-f][1,4]oxazepine-9-carbonitrile] gave an IC50 (GST-hRIPK1 (8-327)) of 100 to 1000 nM.

Regarding `N#Cc1cccc2c1OCCN(C(=O)C1CCN(c3ncc(F)cn3)CC1)C2` [Example 183, 4-[1-(5-fluoropyrimidin-2-yl)piperidine-4-carbonyl]-3,5-dihydro-2H-1,4-benzoxazepine-9-carbonitrile], the IC50 under setting [1] lay in the range of 0.1 to 100 nM.

For the setting “GST-hRIPK1 (8-327)”, `CC(C(=O)N1CCOc2c(C#N)cncc2C1)(C(F)F)C1CC1` (single isomer, unassigned) [Example 258, 4-(2-Cyclopropyl-3,3-difluoro-2-methyl-propanoyl)-3,5-dihydro-2H-pyrido[3,4-f][1,4]oxazepine-9-carbonitrile] returned an IC50 of 0.1 to 100 nM.

Consider `CC1(C(=O)N2CCOc3c(C#N)cncc3C2)CCN(c2ncc(F)cn2)CC1F` (single isomer, unassigned) [Example 300, 4-[3-Fluoro-1-(5-fluoropyrimidin-2-yl)-4-methyl-piperidine-4-carbonyl]-3,5-dihydro-2H-pyrido[3,4-f][1,4]oxazepine-9-carbonitrile], for which the IC50 (GST-hRIPK1 (8-327)) was in the range of 0.1 to 100 nM.

The molecule `CCC(C)(CC)C(=O)N1CCOc2c(C#N)cncc2C1` [Example 151, 4-(2-ethyl-2-methyl-butanoyl)-3,5-dihydro-2H-pyrido[3,4-f][1,4]oxazepine-9-carbonitrile] yielded an IC50 under setting [1] of 0.1 to 100 nM.

For the molecule `CC(C)(C)C(=O)N1CCCc2ccccc2C1` [Example 3, 2,2-dimethyl-1-(1,3,4,5-tetrahydro-2-benzazepin-2-yl)propan-1-one], the IC50 under setting [1] lay within 100 to 1000 nM.

For `COc1nc(N2CCC(C(=O)N3Cc4cncc(C#N)c4OC[C@H]3C)CC2)ncc1F` [Example 120, (3R)-4-(1-(5-fluoro-4-methoxypyrimidin-2-yl)piperidine-4-carbonyl)-3-methyl-2,3,4,5-tetrahydropyrido[3,4-f][1,4]oxazepine-9-carbonitrile], the IC50 under setting [1] is 0.1 to 100 nM.

`COc1ncc(F)c(N2CCC(F)(C(=O)N3CCOc4c(C#N)cncc4C3)CC2)n1` [Example 114, 4-[4-fluoro-1-(5-fluoro-2-methoxy-pyrimidin-4-yl)piperidine-4-carbonyl]-3,5-dihydro-2H-pyrido[3,4-f][1,4]oxazepine-9-carbonitrile]: under setting [1], the IC50 was in the range of 0.1 to 100 nM.

As to `N#Cc1cncc2c1OCCN(C(=O)C1(C#N)CCN(c3ncc(F)cn3)CC1)C2` [Example 182, 4-[4-cyano-1-(5-fluoropyrimidin-2-yl)piperidine-4-carbonyl]-3,5-dihydro-2H-pyrido[3,4-f][1,4]oxazepine-9-carbonitrile], the IC50 under setting [1] is 100 to 1000 nM.

`CNc1nc(N2CCC(F)(C(=O)N3CCOc4c(C#N)cncc4C3)CC2)ncc1F` [Example 123, 4-[4-fluoro-1-[5-fluoro-4-(methylamino)pyrimidin-2-yl]piperidine-4-carbonyl]-3,5-dihydro-2H-pyrido[3,4-f][1,4]oxazepine-9-carbonitrile] displayed an IC50 under setting [1] of 100 to 1000 nM.

In turn, `N#Cc1cncc2c1OCCN(C(=O)C1(C(F)(F)F)CCC1)C2` [Example 53, 4-[1-(trifluoromethyl)cyclobutanecarbonyl]-3,5-dihydro-2H-pyrido[3,4-f][1,4]oxazepine-9-carbonitrile] registered an IC50 under setting [1] of 100 to 1000 nM.

On to `CC(C)(CC#N)C(=O)N1CCOc2c(C#N)cccc2C1` [Example 25, 4-(3-cyano-2,2-dimethyl-propanoyl)-3,5-dihydro-2H-1,4-benzoxazepine-9-carbonitrile], for which, under setting [1], the 50% inhibitory concentration (IC50) fell in the range of 0.1 to 100 nM.

Under setting [1], `CC(C)(CC#N)C(=O)N1CCOc2c(F)cccc2C1` [Example 14, 4-(9-fluoro-3,5-dihydro-2H-1,4-benzoxazepin-4-yl)-3,3-dimethyl-4-oxo-butanenitrile] yielded an IC50 of 0.1 to 100 nM.

Regarding `CC(C)(C(=O)N1CCOc2c(C#N)cncc2C1)C1CC1COC(F)(F)F` (centres unmarked) [Example 274, 4-(2-Methyl-2-(2-((trifluoromethoxy)methyl)cyclopropyl)propanoyl)-2,3,4,5-tetrahydropyrido[3,4-f][1,4]oxazepine-9-carbonitrile], the IC50 (GST-hRIPK1 (8-327)) is greater than 1000 nM.

The molecule `N#Cc1cncc2c1OCCN(C(=O)C1(F)CCN(c3ccnc4ncnn34)CC1)C2` [Example 212, 4-[4-fluoro-1-([1,2,4]triazolo[1,5-a]pyrimidin-7-yl)piperidine-4-carbonyl]-3,5-dihydro-2H-pyrido[3,4-f][1,4]oxazepine-9-carbonitrile] had an IC50 (GST-hRIPK1 (8-327)) of 100 to 1000 nM.

Take `N#Cc1cncc2c1OCCN(C(=O)[C@]13CCN(c4ncc(F)cn4)C[C@H]1C3)C2` (relative stereo) [Example 89, 4-(cis-3-(5-fluoropyrimidin-2-yl)-3-azabicyclo[4.1.0]heptane-6-carbonyl)-3,5-dihydro-2H-pyrido[3,4-f][1,4]oxazepine-9-carbonitrile]: the IC50 under setting [1] was 0.1 to 100 nM.

Consider `COCCOc1nc(N2CCC(C)(C(=O)N3CCOc4c(C#N)cncc4C3)C(F)(F)C2)ncc1F` (centres unmarked) [Example 217, 4-[3,3-difluoro-1-[5-fluoro-4-(2-methoxyethoxy)pyrimidin-2-yl]-4-methyl-piperidine-4-carbonyl]-3,5-dihydro-2H-pyrido[3,4-f][1,4]oxazepine-9-carbonitrile], for which the IC50 (GST-hRIPK1 (8-327)) is 0.1 to 100 nM.

`CC(C)(CF)C(=O)N1CCOc2c(C#N)cncc2C1` [Example 144, 4-(3-fluoro-2,2-dimethyl-propanoyl)-3,5-dihydro-2H-pyrido[3,4-f][1,4]oxazepine-9-carbonitrile] came in with an IC50 under setting [1] of 0.1 to 100 nM.

Consider `N#Cc1cncc2c1OCCN(C(=O)C1CCN(c3ccnc4c(Cl)cnn34)C[C@@H]1F)C2` (stereo partly drawn) [Example 227, 4-[1-(3-chloropyrazolo[1,5-a]pyrimidin-7-yl)-(3,4)-trans-3-fluoro-piperidine-4-carbonyl]-3,5-dihydro-2H-pyrido[3,4-f][1,4]oxazepine-9-carbonitrile], for which, under “GST-hRIPK1 (8-327)”, the IC50 was in the range of 0.1 to 100 nM.

The molecule `N#Cc1cncc2c1OCCN(C(=O)C1CCN(c3ncc(F)cn3)CC1F)C2` (single isomer, unassigned) [Example 305, 4-[3-Fluoro-1-(5-fluoropyrimidin-2-yl)piperidine-4-carbonyl]-3,5-dihydro-2H-pyrido[3,4-f][1,4]oxazepine-9-carbonitrile] gave a half-inhibitory concentration (IC50) (GST-hRIPK1 (8-327)) of 100 to 1000 nM.

In turn, `Cc1cnc(N2CCC(F)(C(=O)N3CCOc4c(C#N)cncc4C3)CC2)nc1` [Example 163, 4-[4-fluoro-1-(5-methylpyrimidin-2-yl)piperidine-4-carbonyl]-3,5-dihydro-2H-pyrido[3,4-f][1,4]oxazepine-9-carbonitrile] showed an IC50 under setting [1] of 100 to 1000 nM.

On to `CC(C(=O)N1CCOc2c(C#N)cncc2C1)(C(F)F)C1CC1` (single isomer, unassigned) [Example 259, 4-(2-Cyclopropyl-3,3-difluoro-2-methyl-propanoyl)-3,5-dihydro-2H-pyrido[3,4-f][1,4]oxazepine-9-carbonitrile], for which the IC50 (GST-hRIPK1 (8-327)) was in the range of 100 to 1000 nM.

As to `N#Cc1cncc2c1OCCN(C(=O)C1CCN(c3ncc(F)c(OCC(F)F)n3)CC1)C2` [Example 131, 4-(1-(4-(2,2-difluoroethoxy)-5-fluoropyrimidin-2-yl)piperidine-4-carbonyl)-2,3,4,5-tetrahydropyrido[3,4-f][1,4]oxazepine-9-carbonitrile], the IC50 under setting [1] was in the range of 0.1 to 100 nM.

The term IC50 denotes the concentration needed to halve the response being measured.
